# Source: patent publication US8273780B2, “Polycyclic antagonists of lysophosphatidic acid receptors” (Amira Pharmaceuticals, Inc., priority 2009, dated 2012)
# Legend:
# Assay type in all cases: cell-based
# Human LPA1 = target: T1, Human LPA1 (Homo sapiens, UniProt Q92633); assay: LPA1 calcium flux assay; conditions: CHO cells expressing human LPA1, 10 nM LPA; read-out: HLPA1 Ca Flux IC50
# T1 construct: the full-length cDNA for human LPA1 was obtained by PCR of the reverse transcription reaction; expressed in transfected cells
# T1 sequence (Q92633 whole entry): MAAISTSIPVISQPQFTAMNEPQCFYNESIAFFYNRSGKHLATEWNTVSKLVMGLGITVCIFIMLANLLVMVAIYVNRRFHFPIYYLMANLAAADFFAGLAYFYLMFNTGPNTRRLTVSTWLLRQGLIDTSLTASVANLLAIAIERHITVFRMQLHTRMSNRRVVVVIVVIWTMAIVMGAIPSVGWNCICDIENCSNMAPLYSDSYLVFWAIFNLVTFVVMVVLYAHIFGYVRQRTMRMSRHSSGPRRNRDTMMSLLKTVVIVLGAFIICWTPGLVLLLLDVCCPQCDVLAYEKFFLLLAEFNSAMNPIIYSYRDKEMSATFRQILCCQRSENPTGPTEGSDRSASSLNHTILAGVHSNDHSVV
# Protocol: A 1.1 kb cDNA encoding the human LPA1 receptor was cloned from human lung. Human lung RNA (Clontech Laboratories, Inc. USA) was reverse transcribed using the RETROscript kit (Ambion, Inc.) and the full-length cDNA for human LPA1 was obtained by PCR of the reverse transcription reaction. The nucleotide sequence of the cloned human LPA1 was determined by sequencing and confirmed to be identical to the published human LPA1 sequence (An et al. Biochem. Biophys. Res. Commun. 231:619 (1997). The cDNA was cloned into the pcDNA5/FRT expression plasmid and transfected in CHO cells using lipofectamine 2000 (Invitrogen Corp., USA). Clones stably expressing human LPA1 were selected using hygromycin and identified as cells that show Ca-influx in response to LPA.
# (§1) Human LPA1 or LPA3 expressing CHO cells are seeded at 20,000-45,000 cells per well in a 96-well poly-D-lysine coated plate one or two days before the assay. Prior to the assay, the cells are washed once with PBS and then cultured in serum-free media overnight. On the day of the assay, a calcium indicator dye (Calcium 4, Molecular Devices) in assay buffer (HBSS with Ca^2+and Mg^2+ and containing 20 mM Hepes and 0.3% fatty-acid free human serum albumin) is added to each well and incubation continued for 1 hour at 37° C. 10 μl of test compounds in 2.5% DMSO are added to the cells and incubation continued at room temperature for 30 minutes. Cells are the stimulated by the addition of 10 nM LPA and intracellular Ca^2+ measured using the Flexstation 3 (Molecular Devices). IC50s are determined using Graphpad prism analysis of drug titration curves.
# Human LPA3 = target: T2, Human LPA3 (Homo sapiens, UniProt Q9UBY5); assay: LPA3 calcium flux assay; conditions: CHO cells expressing human LPA3, 10 nM LPA; read-out: HLPA3 Ca Flux IC50
# T2 construct: The full-length cDNA fragment for human LPA3 was obtained by PCR from the vector; expressed in transfected cells; cDNA from the Missouri S&T cDNA Resource Center
# T2 sequence (Q9UBY5 1-353): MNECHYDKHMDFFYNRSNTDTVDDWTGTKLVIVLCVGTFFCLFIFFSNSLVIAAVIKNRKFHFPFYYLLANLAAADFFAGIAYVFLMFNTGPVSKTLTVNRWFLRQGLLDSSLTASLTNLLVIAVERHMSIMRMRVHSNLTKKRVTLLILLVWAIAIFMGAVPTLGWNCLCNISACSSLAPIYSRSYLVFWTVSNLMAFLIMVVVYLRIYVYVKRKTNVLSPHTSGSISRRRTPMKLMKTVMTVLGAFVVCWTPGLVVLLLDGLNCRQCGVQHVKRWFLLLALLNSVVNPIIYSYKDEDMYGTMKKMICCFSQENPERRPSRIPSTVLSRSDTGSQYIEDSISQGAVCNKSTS
# Protocol: A vector containing the human LPA3 receptor cDNA was obtained from the Missouri S&T cDNA Resource Center (www.cdna.org). The full-length cDNA fragment for human LPA3 was obtained by PCR from the vector. The nucleotide sequence of the cloned human LPA3 was determined by sequencing and confirmed to be identical to the published human LPA3 sequence (NCBI accession number NM_012152). The cDNA was cloned into the pcDNA5/FRT expression plasmid and transfected in CHO cells using lipofectamine 2000 (Invitrogen Corp., USA). Clones stably expressing human LPA3 were selected using hygromycin and identified as cells that show Ca-influx in response to LPA.
# as §1
# [1] = test system: human A2058 melanoma cells; assay: LPA1 chemotaxis assay; conditions: 100 nM LPA, read-out: inhibition of LPA-driven chemotaxis IC50
# Protocol: Chemotaxis of the A2058 human melanoma cells was measured using the Neuroprobe ChemoTx® System plates (8 μM pore size, 5.7 mm diameter sites). The filter sites were coated with 0.001% fibronectin (Sigma) in 20 mM Hepes, pH 7.4 and allowed to dry. A2058 cells were serum-starved for 24 hours, then harvested with Cell Stripper and resuspended in DMEM containing 0.1% fatty-acid-free bovine serum albumin (BSA) to a concentration of 1×10^6/ml. Cells were mixed with an equal volume of test compound (2×) in DMEM containing 0.1% fatty-acid-free BSA and incubated at 37° C. for 15 minutes. LPA (100 nM in DMEM containing 0.1% fatty-acid-free BSA) or vehicle was added to each well of the lower chamber and 50 μl of the cell suspension/test compound mix was applied to the upper portion of the ChemoTx plate. Plates were incubated at 37° C. for three hours and then the cells removed from the upper portion by rinsing with PBS and scraping. The filter was dried then stained with HEMA 3 Staining System (Fisher Scientific). The absorbance of the filter was read at 590 nm and IC50s were determined using Symyx Assay Explorer.
IC50 (Human LPA1) [nM],IC50 (Human LPA3) [nM],IC50 [1] [nM],Compound
< 300,> 10000,< 100,"Cc1noc(-c2ccc(-c3ccc(C4(C(=O)O)CC4)cc3)cc2)c1NC(=O)OCc1ccccc1 [Compound 4, 1-[4′-(4-Benzyloxycarbonylamino-3-methyl-isoxazol-5-yl)-biphenyl-4-yl]-cyclopropanecarboxylic acid]"
< 300,300 to 1000,< 100,"Cc1noc(-c2ccc(-c3ccc(C4(C(=O)O)CC4)cc3)cc2)c1NC(=O)O[C@H](C)c1ccccc1Cl [Compound 8, 1-(4′-{4-[(R)-1-(2-Chloro-phenyl)-ethoxycarbonylamino]-3-methyl-isoxazol-5-yl}-biphenyl-4-yl)-cyclopropanecarboxylic acid]"
< 300,1000 to 10000,< 100,"Cc1ccc([C@@H](C)OC(=O)Nc2c(C)noc2-c2ccc(-c3ccc(C4(C(=O)O)CC4)cc3)cc2)cc1 [Compound 16, 1-{4′-[3-Methyl-4-((R)-1-p-tolyl-ethoxycarbonylamino)-isoxazol-5-yl]-biphenyl-4-yl}-cyclopropanecarboxylic acid]"
< 300,300 to 1000,< 100,"Cc1cccc([C@@H](C)OC(=O)Nc2c(C)noc2-c2ccc(-c3ccc(C4(C(=O)O)CC4)cc3)cc2)c1 [Compound 17, 1-{4′-[3-Methyl-4-((R)-1-m-tolyl-ethoxycarbonylamino)-isoxazol-5-yl]-biphenyl-4-yl}-cyclopropanecarboxylic acid]"
< 300,1000 to 10000,< 100,"Cc1noc(-c2ccc(-c3ccc(C4(C(=O)O)CC4)cc3)cc2)c1NC(=O)O[C@H](C)c1ccccc1C#N [Compound 19, 1-(4′-{4-[(R)-1-(2-Cyano-phenyl)-ethoxycarbonylamino]-3-methyl-isoxazol-5-yl}-biphenyl-4-yl)-cyclopropanecarboxylic acid]"
< 300,< 300,< 100,"Cc1noc(-c2ccc(-c3ccc(C4(C(=O)O)CC4)cc3)cc2)c1NC(=O)OC(C)C1=C(Cl)CCCC1 (centres unmarked) [Compound 21, 1-(4′-{4-[1-(2-Chloro-cyclohex-1-enyl)-ethoxycarbonylamino]-3-methyl-isoxazol-5-yl}-biphenyl-4-yl)-cyclopropanecarboxylic acid]"
< 300,300 to 1000,< 100,"CCc1noc(-c2ccc(-c3ccc(C4(C(=O)O)CC4)cc3)cc2)c1NC(=O)O[C@H](C)c1ccccc1 [Compound 29, 1-{4′-[3-Ethyl-4-((R)-1-phenyl-ethoxycarbonylamino)-isoxazol-5-yl]-biphenyl-4-yl}-cyclopropanecarboxylic acid]"
< 300,< 300,–,"CCc1noc(-c2ccc(-c3ccc(C4(C(=O)O)CC4)cc3)cc2)c1NC(=O)O[C@H](C)c1cccc(C(F)(F)F)c1 [Compound 30, 1-(4′-{3-Ethyl-4-[(R)-1-(3-trifluoromethyl-phenyl)-ethoxycarbonylamino]-isoxazol-5-yl}-biphenyl-4-yl)-cyclopropanecarboxylic acid]"
< 300,< 300,–,"COc1cc(-c2ccc(C3(C(=O)O)CC3)cc2)ccc1-c1onc(C)c1NC(=O)O[C@H](C)c1cccc(C(F)(F)F)c1 [Compound 31, 1-(3′-Methoxy-4′-{3-methyl-4-[(R)-1-(3-trifluoromethyl-phenyl)-ethoxycarbonylamino]-isoxazol-5-yl}-biphenyl-4-yl)-cyclopropanecarboxylic acid]"
< 300,1000 to 10000,–,"Cc1noc(-c2ccc(-c3ccc(C4(C(=O)O)CC4)cc3)cc2)c1NC(=O)O[C@H](C)c1cc(Br)cc(Br)c1 [Compound 32, 1-(4′-{4-[(R)-1-(3,5-Dibromo-phenyl)-ethoxycarbonylamino]-3-methyl-isoxazol-5-yl}-biphenyl-4-yl)-cyclopropanecarboxylic acid]"
< 300,1000 to 10000,–,"C[C@@H](OC(=O)Nc1cnoc1-c1ccc(-c2ccc(C3(C(=O)O)CC3)cc2)cc1)c1ccccc1 [Compound 33, 1-{4′-[4-((R)-1-Phenyl-ethoxycarbonylamino)-isoxazol-5-yl]-biphenyl-4-yl}-cyclopropanecarboxylic acid]"
< 300,1000 to 10000,< 100,"Cc1noc(-c2ccc(-c3ccc(C4(C(=O)NS(C)(=O)=O)CC4)cc3)cc2)c1NC(=O)O[C@H](C)c1ccccc1 [Compound 35, {5-[4′-(1-Methanesulfonylaminocarbonyl-cyclopropyl)-biphenyl-4-yl]-3-methyl-isoxazol-4-yl}-carbamic acid (R)-1-phenyl-ethyl ester]"
< 300,1000 to 10000,< 100,"Cc1noc(-c2ccc(-c3ccc(C4(C(=O)NS(=O)(=O)c5ccccc5)CC4)cc3)cc2)c1NC(=O)O[C@H](C)c1ccccc1 [Compound 36, {5-[4′-(1-Benzenesulfonylaminocarbonyl-cyclopropyl)-biphenyl-4-yl]-3-methyl-isoxazol-4-yl}-carbamic acid (R)-1-phenyl-ethyl ester]"
1000 to 10000,> 10000,–,"Cc1noc(-c2ccc(-c3ccc(C4(C#N)CC4)cc3)cc2)c1NC(=O)O[C@H](C)c1ccccc1 [Compound 37, {5-[4′-(1-Cyano-cyclopropyl)-biphenyl-4-yl]-3-methyl-isoxazol-4-yl}-carbamic acid (R)-1-phenyl-ethyl ester]"
< 300,1000 to 10000,< 100,"Cc1noc(-c2ccc(-c3ccc(C4(c5nc(=O)o[nH]5)CC4)cc3)cc2)c1NC(=O)O[C@H](C)c1ccccc1 [Compound 38, (3-Methyl-5-{4′-[1-(5-oxo-2,5-dihydro-[1,2,4]oxadiazol-3-yl)-cyclopropyl]-biphenyl-4-yl}-isoxazol-4-yl)-carbamic acid (R)-1-phenyl-ethyl ester]"
< 300,1000 to 10000,< 100,"Cc1noc(-c2ccc(-c3ccc(C4(c5nnn[nH]5)CC4)cc3)cc2)c1NC(=O)O[C@H](C)c1ccccc1 [Compound 39, (3-Methyl-5-{4′-[1-(1H-tetrazol-5-yl)-cyclopropyl]-biphenyl-4-yl}-isoxazol-4-yl)-carbamic acid (R)-1-phenyl-ethyl ester]"
< 300,300 to 1000,–,"Cc1noc(-c2ccc(-c3ccc(C4(C(=O)NS(C)(=O)=O)CC4)cc3)cc2)c1NC(=O)O[C@H](C)c1cccc(C(F)(F)F)c1 [Compound 40, {5-[4′-(1-Methanesulfonylaminocarbonyl-cyclopropyl)-biphenyl-4-yl]-3-methyl-isoxazol-4-yl}-carbamic acid (R)-1-(3-trifluoromethyl-phenyl)-ethyl ester]"
< 300,300 to 1000,–,"COc1cc(-c2ccc(C3(C(=O)NS(C)(=O)=O)CC3)cc2)ccc1-c1onc(C)c1NC(=O)O[C@H](C)c1cccc(C(F)(F)F)c1 [Compound 41, {5-[4′-(1-Methanesulfonylaminocarbonyl-cyclopropyl)-3-methoxy-biphenyl-4-yl]-3-methyl-isoxazol-4-yl}-carbamic acid (R)-1-(3-trifluoromethyl-phenyl)-ethyl ester]"
